Like-named read-outs stand apart in the source and are kept apart here.
Assays:
CDK4/Cyclin D1 = CDK4/Cyclin D1 (Homo sapiens (Human), UniProt P11802); assay: CDK4/CyclinD1 enzymatic activity assay (TR-FRET); format: biochemical; conditions: CDK4/CyclinD1 1 nM, ATP 2 mM, read-out: CDK4_D1 IC50
Method: CDK4/CyclinD1 Enzymatic Activity Assay
(§1) The inhibitory activity of compounds was evaluated in vitro using TR-FRET assay with white 384-well low volume microplate (Greiner Bio-One). CDK4/Cyclin D1 catalyzed phosphorylation of peptide in the presence and absence of compounds was measured. IC50 determination. Recombinant protein complex CDK4/Cyclin D1, expressed from insect cell, was purchased from ProQinase. Testing compounds were dissolved in DMSO at 0.1 mM and tested in 9-dose IC50 mode. The reaction mixture was prepared by mixing CDK4/CyclinD1 (1 nM final), ULight-4E-BP1 (100 nM final, Perkinelmer, TRF0128-D), and ATP (2 mM final) in assay buffer (20 mM of HEPES pH 7.4, 1 mM of EGTA, 0.05% BSA, 0.005% Tween 20, and 1 mM TCEP). The compound of interest in DMSO was added to each well in 3-fold serial dilution by dispenser (TECAN D300E). After 20 minutes preincubation at room temperature, MgCl2 (10 mM final) was added to initiate the reaction. Following a 60 minutes incubation at 37° C., the reaction was stopped by addition of 2 μL of quenching buffer consisting of Lance detection buffer (Perkinelmer CR97-100C), 2 nM LANCE Ultra Europium-anti-P-4E-BP1 (Perkinelmer, TRF0216-D), 10 mM EDTA, and incubate at room temperature for additional 60 minutes in dark. The reaction signal was measured by Envision multimode plate reader (PerkinElmer, 2102-0010). IC50 values were determined by fitting the data to the standard 4 parameters with Hill Slope using GraphPad Prism software.

CDK6/Cyclin D1 = CDK6/Cyclin D1 (Homo sapiens (Human), UniProt Q00534); assay: CDK6/CyclinD1 enzymatic activity assay (TR-FRET); format: biochemical; conditions: CDK6/Cyclin D1 1 nM, ATP 250 μM, read-out: CDK6_D1 IC50
CDK6/Cyclin D1, sequence (Q00534 whole entry): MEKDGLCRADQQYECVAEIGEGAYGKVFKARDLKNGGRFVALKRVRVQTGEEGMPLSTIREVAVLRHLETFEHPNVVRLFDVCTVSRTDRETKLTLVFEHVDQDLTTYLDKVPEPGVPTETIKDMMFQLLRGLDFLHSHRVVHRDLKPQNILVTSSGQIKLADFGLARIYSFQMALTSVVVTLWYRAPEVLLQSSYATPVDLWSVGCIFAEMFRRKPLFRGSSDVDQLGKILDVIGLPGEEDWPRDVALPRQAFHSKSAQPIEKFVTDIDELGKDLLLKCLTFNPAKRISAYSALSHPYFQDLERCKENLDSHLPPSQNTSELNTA
CDK6/Cyclin D1, sequence (P24385 whole entry partner): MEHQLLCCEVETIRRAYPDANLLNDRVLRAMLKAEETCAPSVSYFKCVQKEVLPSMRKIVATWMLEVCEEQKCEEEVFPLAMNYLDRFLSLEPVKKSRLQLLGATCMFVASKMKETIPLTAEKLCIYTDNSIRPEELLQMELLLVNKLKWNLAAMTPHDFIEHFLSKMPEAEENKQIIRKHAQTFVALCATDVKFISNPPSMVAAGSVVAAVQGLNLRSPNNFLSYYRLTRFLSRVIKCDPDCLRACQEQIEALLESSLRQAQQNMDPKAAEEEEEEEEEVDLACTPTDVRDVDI
Method: CDK6/CyclinD1 Enzymatic Activity Assay
as §1, with “CDK6/Cyclin” for “CDK4/Cyclin”, “measured and used in” for “measured.”, “CDK6/Cyclin D1” for “CDK4/CyclinD1”, “(250 μM” for “(2 mM”, “temperature, 0.1 μL” for “temperature,”

[1] = system: MCF7 adenocarcinoma cell line; assay: Cell proliferation studies in MCF7 cells (ATP-Lite); format: cell-based; conditions: 10 days incubation, cell viability by ATP-Lite luminescence, read-out: PROLIFERATION_CTG_MCF7 IC50
Method: Cell Proliferation Studies in MCF7 Cells
Cell proliferation studies were conducted in MCF7 adenocarcinoma cell line. Cells were maintained in DMEM (Corning, Catalog #: 10-013-CV) supplemented with 10% v/v FBS (Gibco, Catalog #: 26140-079), 1% v/v Penicillin Streptomycin (Gibco, Catalog #15140-122) Cells were seeded in 384-well plates at a density of 100 or 200 cells/well. Compounds dissolved in DMSO were plated in quadruplicate using a digital dispenser (D300E, Tecan) and tested on a 9-point 3-fold serial dilution. Cells were incubated for 10 days in a 37° C. active humidified incubator at 5% CO2. A media exchange and second compound addition were performed on day 5. Cell viability was measured using the ATP-Lite 1-Step Luminescence reagent (Perkin Elmer, Catalog #: 6016731) as per manufacturer's instructions. Luminescence signal was measured with a multimode plate reader (Envision 2105, Perkin Elmer). Raw data files were imported to Dotmatics Screening Ultra for IC50 analysis. Luminescence values were normalized to both background and DMSO controls to obtain a percentage of viable cells relative to DMSO vehicle control.

CDK4/Cyclin D1, sequence (P11802 whole entry): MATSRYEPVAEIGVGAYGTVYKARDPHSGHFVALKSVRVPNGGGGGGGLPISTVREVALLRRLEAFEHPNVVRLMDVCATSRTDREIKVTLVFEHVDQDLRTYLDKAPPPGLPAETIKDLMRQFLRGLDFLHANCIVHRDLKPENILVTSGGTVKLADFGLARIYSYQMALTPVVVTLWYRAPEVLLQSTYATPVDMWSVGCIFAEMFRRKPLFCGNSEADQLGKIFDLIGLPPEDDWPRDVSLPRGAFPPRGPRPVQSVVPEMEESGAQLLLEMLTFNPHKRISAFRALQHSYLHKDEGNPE
CDK4/Cyclin D1, sequence (P24385 whole entry partner): as the sequence (P24385 whole entry partner) above

Structure (SMILES)	IC50 (CDK4/Cyclin D1) [nM]	IC50 (CDK6/Cyclin D1) [nM]	IC50 ([1]; Homo sapiens, 240 h) [nM]	IC50 [1] [nM]
Cc1c(-c2nc(Nc3ccc(N4CCC5(CCN(C)C5)C4)cn3)ncc2F)sc2c1C(=O)N(C)CC21CC1 (stereo not drawn) [Example 37, 2′-(5-Fluoro-2-((5-(7-methyl-2,7-diazaspiro[4.4]nonan-2-yl)pyridin-2-yl)amino)pyrimidin-4-yl)-3′,5′-dimethyl-5′,6′-dihydro-4′H-spiro[cyclopropane-1,7′-thieno[3,2-c]pyridin]-4′-one]	≤ 20	≤ 20	20 to 200	–
CN1CCC(c2ccc(Nc3nc(-c4cc5c(s4)C4(CC4)CN(C)C5=O)ncc3C(F)(F)F)nc2)CC1 [Example 40, 5-Methyl-2-[4-[[5-(1-methylpiperidin-4-yl)pyridin-2-yl]amino]-5-(trifluoromethyl)pyrimidin-2-yl]spiro[6H-thieno[3,2-c]pyridine-7,1′-cyclopropane]-4-one]	≤ 20	≤ 20	≤ 20	–
Cc1cnc(Nc2ccc(N3CCC4(CC3)CN(C)C4)cn2)nc1-c1cc2c(s1)C1(CC1)CN(C)C2=O [Example 43, 5-methyl-2-[5-Methyl-2-[[5-(2-methyl-2,7-diazaspiro[3.5]nonan-7-yl)pyridin-2-yl]amino]pyrimidin-4-yl]spiro[6H-thieno[3,2-c]pyridine-7,1′-cyclopropane]-4-one]	≤ 20	≤ 20	20 to 200	–
CCN1CC2(C1)CN(c1ccc(Nc3ncc(Cl)c(-c4cc5c(s4)C4(CC4)CN(C)C5=O)n3)nc1)C2 [Example 45, 2-[5-Chloro-2-[[5-(6-ethyl-2,6-diazaspiro[3.3]heptan-2-yl)pyridin-2-yl]amino]pyrimidin-4-yl]-5-methylspiro[6H-thieno[3,2-c]pyridine-7,1′-cyclopropane]-4-one]	≤ 20	≤ 20	≤ 20	–
CN1CC2(CCC2)c2sc(-c3nc(Nc4ccc(N5CC6CC(C5)N6C)cn4)ncc3F)cc2C1=O [Example 46, 2′-(5-Fluoro-2-((5-(6-methyl-3,6-diazabicyclo[3.1.1]heptan-3-yl)pyridin-2-yl)amino)pyrimidin-4-yl)-5′-methyl-5′,6′-dihydro-4′H-spiro[cyclobutane-1,7′-thieno[3,2-c]pyridin]-4′-one]	≤ 20	20 to 200	20 to 200	–
CCN1CC2(C1)CN(c1ccc(Nc3ncc(F)c(-c4sc5c(c4C)C(=O)N(C)CC54CCC4)n3)nc1)C2 [Example 52, 2′-(2-((5-(6-Ethyl-2,6-diazaspiro[3.3]heptan-2-yl)pyridin-2-yl)amino)-5-fluoropyrimidin-4-yl)-3′,5′-dimethyl-5′,6′-dihydro-4′H-spiro[cyclobutane-1,7′-thieno[3,2-c]pyridin]-4′-one]	≤ 20	≤ 20	20 to 200	–
CN1CC2(CCC2)c2sc(-c3nc(Nc4ccc(N5CCN6CCC5CC6)cn4)ncc3F)cc2C1=O [Example 53, 2′-(2-((5-(1,4-Diazabicyclo[3.2.2]nonan-4-yl)pyridin-2-yl)amino)-5-fluoropyrimidin-4-yl)-5′-methyl-5′,6′-dihydro-4′H-spiro[cyclobutane-1,7′-thieno[3,2-c]pyridin]-4′-one]	≤ 20	20 to 200	20 to 200	–
Cc1c(-c2nc(Nc3ccc(N4CC5(CCN(C)C5)C4)cn3)ncc2F)sc2c1C(=O)N(C)CC21CCC1 [Example 54, 2′-(5-Fluoro-2-((5-(6-methyl-2,6-diazaspiro[3.4]octan-2-yl)pyridin-2-yl)amino)pyrimidin-4-yl)-3′,5′-dimethyl-5′,6′-dihydro-4′H-spiro[cyclobutane-1,7′-thieno[3,2-c]pyridin]-4′-one]	≤ 20	≤ 20	20 to 200	–
Cc1c(-c2nc(Nc3ccc(N4C[C@H]5CN(C)C[C@H]5C4)cn3)ncc2F)sc2c1C(=O)N(C)CC21CCC1 [Example 57, 2′-(5-Fluoro-2-((5-((3aR,6aS)-5-methylhexahydropyrrolo[3,4-c]pyrrol-2(1H)-yl)pyridin-2-yl)amino)pyrimidin-4-yl)-3′,5′-dimethyl-5′6′-dihydro-4′H-spiro[cyclobutane-1,7′-thieno[3,2-c]pyridin]-4′-one]	≤ 20	≤ 20	–	20 to 200
CN1CCC(c2ccc(Nc3nc(-c4cc5c(s4)C4(CCC4)CN(C)C5=O)ncc3C(F)(F)F)nc2)CC1 [Example 58]	≤ 20	≤ 20	–	≤ 20
Cc1c(-c2nc(Nc3ccc(C4CCN(C)CC4)cn3)ncc2Cl)sc2c1C(=O)N(C)CC21CCC1 [Example 60, 2-[5-Chloro-2-[[5-(1-methyl-piperidin-4-yl)pyridin-2-yl]amino]pyrimidin-4-yl]-3,5-dimethylspiro[6H-thieno[3,2-c]pyridine-7,1′-cyclobutane]-4-one]	≤ 20	≤ 20	20 to 200	–
CN1CC2(C1)CN(c1ccc(Nc3ncc(F)c(-c4cc5c(s4)C4(CCCC4)CN(C)C5=O)n3)nc1)C2 [Example 61, 2′-(5-Fluoro-2-((5-(6-(methyl-d3)-2,6-diazaspiro[3.3]heptan-2-yl)pyridin-2-yl)amino)pyrimidin-4-yl)-5,-(methyl-d3)-5′,6′-dihydro-4′H-spiro[cyclopentane-1,7′-thieno[3,2-c]pyridin]-4′-one]	≤ 20	≤ 20	–	≤ 20
CN1CC2(CCCC2)c2sc(-c3nc(Nc4ccc(N5CCOCC5)cn4)ncc3F)cc2C1=O [Example 62, 2′-(5-Fluoro-2-((5-morpholino-pyridin-2-yl)amino)pyrimidin-4-yl)-5′-methyl-5′,6′-dihydro-4′H-spiro[cyclopentane-1,7′-thieno[3,2-c]pyridin]-4′-one]	≤ 20	20 to 200	20 to 200	–
[2H]C([2H])([2H])N1C(=O)c2c(sc(-c3nc(Nc4ccc(C5CCN(C)CC5)cn4)ncc3F)c2C)C12CC2 [Example 70, 2′-[5-Fluoro-2-[[5-(1-methylpiperidin-4-yl)pyridin-2-yl]amino]pyrimidin-4-yl]-3′-methyl-5′-(trideuteriomethyl)spiro[cyclopropane-1,6′-thieno[2,3-c]pyrrole]-4′-one]	≤ 20	≤ 20	20 to 200	–
Cc1c(-c2nc(Nc3ccc(C4CCN(C)CC4)cn3)ncc2F)sc2c1C(=O)NC21CC1 [Example 73, 2-[5-Fluoro-2-[[5-(1-methylpiperidin-4-yl)pyridin-2-yl]amino]pyrimidin-4-yl]-3-methylspiro[5H-thieno[2,3-c]pyrrole-6,1′-cyclopropane]-4-one]	≤ 20	≤ 20	≤ 20	–

From patent publication US20250163074A1, “CDK Inhibitors And Their Use As Pharmaceuticals” (Prelude Therapeutics Incorporated, priority 2020, published 2025)
